Laboratory results: US9701664B2, “Fused 1,4-dihydrodioxin derivatives as inhibitors of heat shock transcription factor 1” (Cancer Research Technology Limited, priority 2013, dated 2017)
Read-outs that look alike come from different tables or passages of the source.

Columns and labels:
U2OS cells = test: Titre Blue cell viability assay, U2OS cells; assay type: cell-based
HSP72 in U2OS cells = test: Cell-based ELISA (Cellisa) assay, U2OS cells: inhibition of 17-AAG-induced HSP72; conditions: U2OS cells (Examples 1-168)
Protocol: U2OS cells (5-8×10^4 cells/mL) or SK-OV-3 cells (5-8×10^4 cells/mL) were seeded into 96-well plates and incubated at 37° C. for 48 h. Compounds were then added at a range of concentrations and incubated for 1 h before addition of 17-AAG (250 nM). Cells were then incubated for 18 h. The medium was removed washed 2× with PBS and cells were then fixed with fixing solution (4% paraformaldehyde, 0.3% TritonX-100 in PBS) for 30 min at 4° C. The plates were then washed 2× with PBS before blocking with 5% milk for 30 min at 37° C. After washing the plates 4× with 0.1% Tween-20/deionised water, HSP72 antibody (SPA-810, Enzo Life) was added for 1.5 h at 37° C. Following 4× washes, the plates were incubated with europium-labelled anti-mouse antibody (0.6 ug/ml) in Delfia assay buffer (Perkin Elmer) for 1 h at 37° C. After washing the plates, Delfia enhancement solution was added, shaken for 10 min before reading in the Envision plate reader (Perkin-Elmer) with excitation at 340 nm and emission at 615 nm. The plates were washed again before protein determination using the bicinchoninic acid assay (BCA assay, Pierce Biotechnology). The europium counts were normalised for the amount of protein in each well. The 50% inhibitory concentration value of the compound was then calculated.

With “2-(2-aminoethoxy)-N-(5-(2,3-dihydrobenzo[b][1,4]dioxine-6-carboxamido)-2-methyl)phenyl)quinoline-6-carboxamide [Example 89]” the IC50 (U2OS cells) was 15 nM and the IC50 (HSP72 in U2OS cells) was 13 nM.

Work on `COCCOc1ccc2cc(C(=O)Nc3cc(NC(=O)c4ccc5c(c4)OCCO5)ccc3C)ccc2n1` [Example 3, N-(5-(2,3-dihydrobenzo[b][1,4]dioxine-6-carboxamido)-2-methylphenyl)-2-(2-methoxyethoxy)quinoline-6-carboxamide] yielded an IC50 (U2OS cells; Homo sapiens, U2OS) of 29 nM and an IC50 (HSP72 in U2OS cells; Homo sapiens) of 7 nM.

Compound `CCC(=O)NCCOc1ccc2cc(C(=O)Nc3cc(NC(=O)c4ccc5c(c4)OCCO5)ccc3C)ccc2n1` [Example 81, N-(5-(2,3-dihydrobenzo[b][1,4]dioxine-6-carboxamido)-2-methylphenyl)-2-(2-propionamidoethoxy)quinoline-6-carboxamide] has an IC50 (HSP72 in U2OS cells; Homo sapiens) of 100 nM.

`Cc1ccc(NC(=O)c2ccc3c(c2)OCCO3)cc1NC(=O)c1ccc2c(c1)CCCCN2` [Example 82, N-(5-(2,3-dihydrobenzo[b][1,4]dioxine-6-carboxamido)-2-methylphenyl)-2,3,4,5-tetrahydro-1H-benzo[b]azepine-7-carboxamide] showed an IC50 (HSP72 in U2OS cells; Homo sapiens) of 156 nM.

`CCC(=O)NCCNc1ccc2cc(C(=O)Nc3cc(NC(=O)c4ccc5c(c4)OCCO5)ccc3C)ccc2n1` [Example 83, N-(5-(2,3-dihydrobenzo[b][1,4]dioxine-6-carboxamido)-2-methylphenyl)-2-((2-propionamidoethyl)amino)quinoline-6-carboxamide] showed an IC50 (HSP72 in U2OS cells; Homo sapiens) of 161 nM.

For `Cc1ccc(NC(=O)c2ccc3c(c2)OCCO3)cc1NC(=O)c1ccc2c(c1)CCC(CN(C)C(=O)OC(C)(C)C)N2` (centres unmarked) [Example 85, tert-butyl ((6-((5-(2,3-dihydrobenzo[b][1,4]dioxine-6-carboxamido)-2-methylphenyl)carbamoyl)-1,2,3,4-tetrahydroquinolin-2-yl)methyl)(methyl)carbamate], the IC50 (HSP72 in U2OS cells; Homo sapiens) was 1140 nM.

Work on `CNCC1CCc2cc(C(=O)Nc3cc(NC(=O)c4ccc5c(c4)OCCO5)ccc3C)ccc2N1` (centres unmarked) [Example 86, N-(5-(2,3-dihydrobenzo[b][1,4]dioxine-6-carboxamido)-2-methylphenyl)-2-((methylamino)methyl)-1,2,3,4-tetrahydroquinoline-6-carboxamide] yielded an IC50 (HSP72 in U2OS cells; Homo sapiens) of 195 nM.

Work on `Cc1ccc(NC(=O)c2ccc3c(c2)OCCO3)cc1NC(=O)c1ccc2c(c1)CCNC2` [Example 88, N-(5-(2,3-dihydrobenzo[b][1,4]dioxine-6-carboxamido)-2-methylphenyl)-1,2,3,4-tetrahydroisoquinoline-6-carboxamide] yielded an IC50 (HSP72 in U2OS cells; Homo sapiens) of 770 nM.

`Cc1ccc(NC(=O)c2ccc3c(c2)OCCO3)cc1NC(=O)c1ccc2nc(C(F)(F)F)[nH]c2c1` [Example 90, N-(5-(2,3-dihydrobenzo[b][1,4]dioxine-6-carboxamido)-2-methylphenyl)-2-(trifluoromethyl)-1H-benzo[d]imidazole-6-carboxamide] gave an IC50 (U2OS cells; Homo sapiens, U2OS) of 1360 nM.

With `Cc1ccc(NC(=O)c2ccc3c(c2)OCCO3)cc1NC(=O)c1ccc(Nc2ccccc2)nc1` [Example 94, N-(5-(2,3-dihydrobenzo[b][1,4]dioxine-6-carboxamido)-2-methylphenyl)-6-(phenylamino)nicotinamide] the IC50 (HSP72 in U2OS cells; Homo sapiens) was 73 nM.

In the case of `Cc1ccc(NC(=O)c2ccc3c(c2)OCCO3)cc1NC(=O)c1ccnc(N2CCOCC2)c1` [Example 98, N-(5-(2,3-dihydrobenzo[b][1,4]dioxine-6-carboxamido)-2-methylphenyl)-2-morpholinoisonicotinamide], the IC50 (HSP72 in U2OS cells; Homo sapiens) is reported as 2660 nM.

`CCNc1ccc(C(=O)Nc2cc(NC(=O)c3ccc4c(c3)OCCO4)ccc2C)cn1` [Example 102, N-(5-(2,3-dihydrobenzo[b][1,4]dioxine-6-carboxamido)-2-methylphenyl)-6-(ethylamino)nicotinamide] was tested, and the IC50 (HSP72 in U2OS cells; Homo sapiens) was 835 nM.

With `Cc1ccc(NC(=O)c2ccc3c(c2)OCCO3)cc1NC(=O)c1ccc(N)nc1` [Example 104, 6-amino-N-(5-(2,3-dihydrobenzo[b][1,4]dioxine-6-carboxamido)-2-methylphenyl)nicotinamide] the IC50 (HSP72 in U2OS cells; Homo sapiens) was 482 nM.

`Cc1ccc2cc(C(=O)Nc3cc(NC(=O)c4ccc5c(c4)OCCO5)ccc3C)ccc2c1` [Example 108, N-(4-methyl-3-(6-methyl-2-naphthamido)phenyl)-2,3-dihydrobenzo[b][1,4]dioxine-6-carboxamide] showed an IC50 (HSP72 in U2OS cells; Homo sapiens) of 483 nM.

`Cc1cc(NCCCN(C)C)c2cc(C(=O)Nc3cc(NC(=O)c4ccc5c(c4)OCCO5)ccc3C)ccc2n1` [Example 111, N-(5-(2,3-dihydrobenzo[b][1,4]dioxine-6-carboxamido)-2-methylphenyl)-4-(3-(dimethylamino)propylamino)-2-methylquinoline-6-carboxamide] gave an IC50 (HSP72 in U2OS cells; Homo sapiens) of 1840 nM.

In the case of `Cc1ccc(NC(=O)c2ccc3c(c2)OCCO3)cc1NC(=O)c1ccc2ncsc2c1` [Example 114, N-(5-(2,3-dihydrobenzo[b][1,4]dioxine-6-carboxamido)-2-methylphenyl)benzo[d]thiazole-6-carboxamide], the IC50 (HSP72 in U2OS cells; Homo sapiens) is reported as 35 nM.

Compound `Cc1cc(NCCN2CCCC2)c2cc(C(=O)Nc3cc(NC(=O)c4ccc5c(c4)OCCO5)ccc3C)ccc2n1` [Example 117, N-(5-(2,3-dihydrobenzo[b][1,4]dioxine-6-carboxamido)-2-methylphenyl)-2-methyl-4-(2-(pyrrolidin-1-yl)ethylamino)quinoline-6-carboxamide] has an IC50 (HSP72 in U2OS cells; Homo sapiens) of 635 nM.

`Cc1cc(NCCN2CCOCC2)c2cc(C(=O)Nc3cc(NC(=O)c4ccc5c(c4)OCCO5)ccc3C)ccc2n1` [Example 118, N-(5-(2,3-dihydrobenzo[b][1,4]dioxine-6-carboxamido)-2-methylphenyl)-2-methyl-4-(2-morpholinoethylamino)quinoline-6-carboxamide] gave an IC50 (HSP72 in U2OS cells; Homo sapiens) of 618 nM.

For `Cc1ccc(NC(=O)c2ccc3c(c2)OCCO3)cc1NC(=O)c1ccc(Nc2cccc(OC3CCN(C)CC3)c2)nc1` [Example 121, N-(5-(2,3-dihydrobenzo[b][1,4]dioxine-6-carboxamido)-2-methylphenyl)-6-(3-(1-methylpiperidin-4-yloxy)phenylamino)nicotinamide], the IC50 (U2OS cells; Homo sapiens, U2OS) was 338 nM.

In the case of `Cc1ccc2cc(C(=O)Nc3cc(NC(=O)c4cc5c(cc4F)OCCO5)ccc3C)ccc2n1` [Example 130, N-(5-(7-fluoro-2,3-dihydrobenzo[b][1,4]dioxine-6-carboxamido)-2-methylphenyl)-2-methylquinoline-6-carboxamide], the IC50 (HSP72 in U2OS cells; Homo sapiens) is reported as 156 nM.

Compound `Cc1ccc2cc(C(=O)Nc3cc(NC(=O)c4ccc5c(c4)OCCCO5)ccc3C)ccc2n1` [Example 132, N-(5-(3,4-dihydro-2H-benzo[b][1,4]dioxepine-7-carboxamido)-2-methylphenyl)-2-methylquinoline-6-carboxamide] has an IC50 (HSP72 in U2OS cells; Homo sapiens) of 226 nM.

`Cc1ccc(NC(=O)c2ccc3c(c2)OCCO3)cc1NC(=O)c1ccc2nc(C(C)O)ccc2c1` (centres unmarked) [Example 142, N-(5-(2,3-dihydrobenzo[b][1,4]dioxine-6-carboxamido)-2-methylphenyl)-2-(1-hydroxyethyl)quinoline-6-carboxamide] gave an IC50 (HSP72 in U2OS cells; Homo sapiens) of 51 nM.

`COC(C)c1ccc2cc(C(=O)Nc3cc(NC(=O)c4ccc5c(c4)OCCO5)ccc3C)ccc2n1` (centres unmarked) [Example 153, N-(5-(2,3-dihydrobenzo[b][1,4]dioxine-6-carboxamido)-2-methylphenyl)-2-(1-methoxyethyl)quinoline-6-carboxamide] gave an IC50 (HSP72 in U2OS cells; Homo sapiens) of 140 nM.

Compound `Cc1ccc(NC(=O)c2ccc3c(c2)OCCO3)cc1NC(=O)c1ccc2c(c1)CC[C@H](C)N2` [Example 154, (S)—N-(5-(2,3-dihydrobenzo[b][1,4]dioxine-6-carboxamido)-2-methylphenyl)-2-methyl-1,2,3,4-tetrahydroquinoline-6-carboxamide] has an IC50 (HSP72 in U2OS cells; Homo sapiens) of 145 nM.

`Cc1ccc(NC(=O)c2ccc3c(c2)OCCO3)cc1NC(=O)c1ccc2c(c1)CC[C@@H](C)N2` [Example 155, (R)—N-(5-(2,3-dihydrobenzo[b][1,4]dioxine-6-carboxamido)-2-methylphenyl)-2-methyl-1,2,3,4-tetrahydroquinoline-6-carboxamide] showed an IC50 (HSP72 in U2OS cells; Homo sapiens) of 227 nM.

With `Cc1ccc(NC(=O)c2ccc3c(c2)OCCO3)cc1NC(=O)c1cnc2cccc(CCO)c2c1` [Example 157, N-(5-(2,3-dihydrobenzo[b][1,4]dioxine-6-carboxamido)-2-methylphenyl)-5-(2-hydroxyethyl)quinoline-3-carboxamide] the IC50 (HSP72 in U2OS cells; Homo sapiens) was 221 nM.

With `Cc1ccc(NC(=O)c2ccc3c(c2)OCCO3)cc1NC(=O)c1ccc2c(c1)CCC(C)N2C` (centres unmarked) [Example 159, N-(5-(2,3-dihydrobenzo[b][1,4]dioxine-6-carboxamido)-2-methylphenyl)-1,2-dimethyl-1,2,3,4-tetrahydroquinoline-6-carboxamide] the IC50 (HSP72 in U2OS cells; Homo sapiens) was 345 nM.

`COCCOc1cc(C(=O)Nc2cc(NC(=O)c3ccc4c(c3)OCCO4)ccc2C)cc2cccnc12` [Example 160, N-(5-(2,3-dihydrobenzo[b][1,4]dioxine-6-carboxamido)-2-methylphenyl)-8-(2-methoxyethoxy)quinoline-6-carboxamide] gave an IC50 (HSP72 in U2OS cells; Homo sapiens) of 383 nM.

With `Cc1ccc(NC(=O)c2ccc3c(c2)OCCO3)cc1NC(=O)c1cc(N(C)CCN(C)C)c2ncccc2c1` [Example 162, N-(5-(2,3-dihydrobenzo[b][1,4]dioxine-6-carboxamido)-2-methylphenyl)-8-((2-(dimethylamino)ethyl)(methyl)amino)quinoline-6-carboxamide] the IC50 (HSP72 in U2OS cells; Homo sapiens) was 984 nM.

“N-(5-(2,3-dihydrobenzo[b][1,4]dioxine-6-carboxamido)-2-methyl)phenyl)-2-methyl-4-(2-(pyrrolidin-1-yl)ethoxy)quinoline-6-carboxamide [Example 120]” gave an IC50 (HSP72 in U2OS cells) of 2730 nM.
